Data set [1] relates to PBMC. The note with it: human.
The nature of data set [2]: in vitro. The note with it: human, HuH7 cells.
Data set [3] has as its system CCRF-CEM. The note with it: human.
Data set [4] has as its system Vero. The note with it: chlorocebus sabaeus.
For data set [5], the system named is Hepatitis C virus. Put plainly: microbe, parasite or virus in culture. The note with it: genotype 1b, Huh-7.
Data set [6] concerns the target Cytochrome P450 3A4 (Homo sapiens, UniProt P08684).
In data set [7] the target is Cytochrome P450 2D6 (Homo sapiens, UniProt P10635).
Data set [8] deals with CYP2D6 (Homo sapiens, UniProt P10635). Put plainly: in vitro.
The target of data set [9] is T1, Cytochrome P450 1A2 (Homo sapiens, UniProt P05177).
T1 sequence (P05177 whole entry): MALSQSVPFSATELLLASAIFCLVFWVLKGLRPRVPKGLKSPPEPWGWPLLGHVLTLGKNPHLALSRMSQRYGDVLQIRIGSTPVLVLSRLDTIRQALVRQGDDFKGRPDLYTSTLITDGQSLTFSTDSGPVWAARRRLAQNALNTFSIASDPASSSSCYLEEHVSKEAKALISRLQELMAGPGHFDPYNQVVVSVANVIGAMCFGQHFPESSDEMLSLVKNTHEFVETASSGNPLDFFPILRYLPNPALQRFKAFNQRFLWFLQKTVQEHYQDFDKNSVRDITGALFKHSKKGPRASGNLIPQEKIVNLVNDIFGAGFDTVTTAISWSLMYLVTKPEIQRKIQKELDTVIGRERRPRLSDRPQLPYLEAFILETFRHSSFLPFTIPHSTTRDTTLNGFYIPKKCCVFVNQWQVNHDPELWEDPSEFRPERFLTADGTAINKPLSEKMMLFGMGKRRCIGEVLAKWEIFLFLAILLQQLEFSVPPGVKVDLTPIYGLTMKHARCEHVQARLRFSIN

Data set [10] has as its target CYP2C9 (Homo sapiens, UniProt P11712). Description: in vitro.
In data set [11] the target is Cytochrome P450 2C9 (Homo sapiens, UniProt P11712).
Data set [12] concerns the target T2, CYP1A2 (Homo sapiens, UniProt P05177).
T2 sequence (P05177 whole entry): T1 sequence (P05177 whole entry)
Put plainly: in vitro.

In data set [13] the target is CYP3A4 (Homo sapiens, UniProt P08684). Put plainly: in vitro.
Data set [14] can be described thus: in vitro. The note with it: human, CEM cells.
Data set [15] can be described thus: in vitro. The note with it: human, pbmc.
Data set [16] is described as follows: in vitro. The note with it: chlorocebus sabaeus, Vero cells.

Where only a bound is given, the exact number is not on record here.

This note sets out measurements from ChEMBL document CHEMBL2346553, “Synthesis and evaluation of non-dimeric HCV NS5A inhibitors” (Bioorg Med Chem Lett, 2013).

Chain of Cytochrome P450 3A4 (P08684 whole entry): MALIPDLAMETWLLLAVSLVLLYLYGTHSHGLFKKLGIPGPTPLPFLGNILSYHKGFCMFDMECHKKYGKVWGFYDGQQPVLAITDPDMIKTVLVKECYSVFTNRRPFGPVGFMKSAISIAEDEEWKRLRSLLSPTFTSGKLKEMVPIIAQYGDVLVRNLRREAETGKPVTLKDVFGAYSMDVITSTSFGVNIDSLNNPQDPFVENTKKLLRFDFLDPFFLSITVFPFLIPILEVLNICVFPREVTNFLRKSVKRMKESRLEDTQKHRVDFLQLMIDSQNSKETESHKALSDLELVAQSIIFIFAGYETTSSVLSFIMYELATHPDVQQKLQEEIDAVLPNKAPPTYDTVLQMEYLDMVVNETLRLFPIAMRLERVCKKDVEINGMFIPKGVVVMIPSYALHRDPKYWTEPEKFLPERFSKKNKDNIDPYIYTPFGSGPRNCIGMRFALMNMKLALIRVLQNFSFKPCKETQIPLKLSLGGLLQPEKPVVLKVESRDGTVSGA
Chain of CYP3A4 (P08684 whole entry): as above
Chain of Cytochrome P450 2C9 (P11712 whole entry): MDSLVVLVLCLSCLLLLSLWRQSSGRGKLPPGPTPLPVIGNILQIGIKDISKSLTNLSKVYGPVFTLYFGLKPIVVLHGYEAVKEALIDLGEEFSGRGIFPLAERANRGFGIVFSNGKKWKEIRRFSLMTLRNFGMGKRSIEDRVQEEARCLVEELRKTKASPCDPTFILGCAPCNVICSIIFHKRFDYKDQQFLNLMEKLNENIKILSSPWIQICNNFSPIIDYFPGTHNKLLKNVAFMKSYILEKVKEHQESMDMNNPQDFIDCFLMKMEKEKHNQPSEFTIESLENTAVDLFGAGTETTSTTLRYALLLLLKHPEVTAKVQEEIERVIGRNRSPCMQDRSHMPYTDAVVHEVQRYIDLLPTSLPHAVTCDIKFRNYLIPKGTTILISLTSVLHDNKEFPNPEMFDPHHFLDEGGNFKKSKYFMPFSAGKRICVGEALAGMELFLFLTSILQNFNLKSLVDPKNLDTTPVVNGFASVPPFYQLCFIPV
Chain of CYP2C9 (P11712 whole entry): as above
Chain of CYP2D6 (P10635 whole entry): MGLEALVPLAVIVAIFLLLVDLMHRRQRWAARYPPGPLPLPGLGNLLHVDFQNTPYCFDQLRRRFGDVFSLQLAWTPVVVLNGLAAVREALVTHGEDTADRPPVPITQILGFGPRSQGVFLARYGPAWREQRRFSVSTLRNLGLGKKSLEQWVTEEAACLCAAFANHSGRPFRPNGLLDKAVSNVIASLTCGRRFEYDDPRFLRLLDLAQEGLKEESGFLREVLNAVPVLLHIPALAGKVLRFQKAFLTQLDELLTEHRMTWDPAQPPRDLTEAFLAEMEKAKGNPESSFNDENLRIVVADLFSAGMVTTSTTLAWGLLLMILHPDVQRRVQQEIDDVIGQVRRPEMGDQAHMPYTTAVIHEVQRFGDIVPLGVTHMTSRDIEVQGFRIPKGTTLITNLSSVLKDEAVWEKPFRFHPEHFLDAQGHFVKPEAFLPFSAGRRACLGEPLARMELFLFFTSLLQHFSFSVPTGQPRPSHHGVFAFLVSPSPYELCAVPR
Chain of Cytochrome P450 2D6 (P10635 whole entry): as above

For the compound `COC(=O)N[C@H](C(=O)N1CCC[C@H]1c1ncc(-c2ccccc2)[nH]1)C(C)C`, the CC50 is more than 100 µM in [1], more than 1 µM in data set [2], more than 100 µM in data set [3] and more than 100 µM in data set [4]. Besides, in [5], the EC50 is more than 1 µM.
As for `COC(=O)N[C@H](C(=O)N1CCC[C@H]1c1ncc(-c2ccc(Br)cc2)[nH]1)C(C)C`, the CC50 was more than 100 µM in [1], more than 1 µM in [2], 50 µM in [3] and 48 µM in [4]. The same compound had an EC50 in data set [5] of more than 0.1 µM.
On to `COC(=O)N[C@H](C(=O)N1CCC[C@H]1c1ncc(-c2ccc(N=[N+]=[N-])cc2)[nH]1)C(C)C`, for which the IC50 in data set [6] is 5.1 µM; in data set [7], more than 100 µM; in [9], more than 100 µM; in data set [11], more than 100 µM. Also, the CC50 in data set [1] was more than 100 µM; in data set [2], more than 1 µM; in [3], more than 100 µM; in data set [4], more than 100 µM. The IC90 in data set [8] is more than 100 µM; in data set [10] it was more than 100 µM; in data set [12] it was more than 100 µM; in [13], 96.1 µM. In data set [5], this compound displayed an EC50 of 0.008 µM. The 90% effect level in data set [5] (EC90) was put at 0.052 µM.
Regarding `COC(=O)N[C@H](C(=O)N1CCC[C@H]1c1ncc(-c2ccc(C#N)cc2)[nH]1)C(C)C`, the CC50 was more than 100 µM in [1], more than 1 µM in data set [2], 98 µM in data set [3] and 33 µM in data set [4]. The EC50 in [5] was more than 0.1 µM.
Consider `COC(=O)N[C@H](C(=O)N1CCC[C@H]1c1ncc(-c2ccc([N+](=O)[O-])cc2)[nH]1)C(C)C`, for which the CC50 in data set [1] is more than 100 µM; in [2], more than 1 µM; in data set [3], more than 100 µM; in [4], more than 100 µM. This compound yielded an EC50 in data set [5] of more than 0.1 µM.
With `COC(=O)N[C@H](C(=O)N1CCC[C@H]1c1ncc(-c2ccc(OC(F)(F)F)cc2)[nH]1)C(C)C`, the CC50 in data set [1] is 49 µM; in [2], more than 1 µM; in data set [14], more than 100 µM; in [4], 30 µM. Also, the EC50 in data set [5] is more than 0.1 µM.
On to `COC(=O)N[C@H](C(=O)N1CCC[C@H]1c1ncc(-c2ccc(C(F)(F)F)cc2)[nH]1)C(C)C`, for which the CC50 was more than 1 µM in data set [2], more than 100 µM in [14], more than 100 µM in data set [15] and 26 µM in data set [4]. This compound yielded a concentration for a half-maximal effect (EC50) in data set [5] of more than 0.1 µM.
Turning to `COC(=O)N[C@H](C(=O)N1CCC[C@H]1c1ncc(-c2ccc(OC)cc2)[nH]1)C(C)C`, the CC50 in data set [1] was more than 100 µM; in data set [2] it was more than 1 µM; in [3], more than 100 µM; in data set [4], more than 100 µM. The same compound registered an EC50 in data set [5] of more than 1 µM.
On to `COC(=O)N[C@H](C(=O)N1CCC[C@H]1c1ncc(-c2ccc(C)cc2)[nH]1)C(C)C`, for which the CC50 in [1] was more than 100 µM; in data set [2], more than 1 µM; in data set [3], more than 100 µM; in data set [4], more than 100 µM. The half-maximal effective concentration (EC50) in data set [5] is more than 1 µM.
On to `COC(=O)N[C@H](C(=O)N1CCC[C@H]1c1ncc(-c2ccc(-c3ccccc3)cc2)[nH]1)C(C)C`, for which the CC50 in data set [1] is 14 µM; in data set [2], more than 1 µM; in [3], 70 µM; in [4], 18 µM. Also, in [5], a half-maximal effect (EC50) was put at 0.3 µM. For the same compound, the 90% effect level in [5] (EC90) was put at 0.9 µM.
For the compound `COC(=O)N[C@@H](CC(C)C)C(=O)N1CCC[C@H]1c1ncc(-c2ccc(-c3ccccc3)cc2)[nH]1`, the CC50 in data set [1] is 16 µM; in data set [2], more than 1 µM; in data set [3] it was 61 µM; in data set [4] it was 25 µM. Moreover, in data set [5], the EC50 was more than 0.1 µM. In [5], this compound had an EC90 of more than 1 µM.
Regarding `C[C@H](NC(=O)OC(C)(C)C)C(=O)N1CCC[C@H]1c1ncc(-c2ccc(-c3ccccc3)cc2)[nH]1`, the CC50 was 16 µM in data set [1], more than 1 µM in data set [2], 11 µM in data set [3] and 13 µM in data set [4]. Moreover, the EC50 in data set [5] is more than 1 µM.
As for `COC(=O)N[C@H](C(=O)N1CCC[C@H]1c1ncc(-c2ccc(Cl)cc2Cl)[nH]1)C(C)C`, the CC50 is 56 µM in [1], more than 1 µM in data set [2], more than 100 µM in data set [14] and 15 µM in [4]. Besides, in [5], it took 1 µM to reach a half-maximal effect (EC50).
On to `COC(=O)N[C@H](C(=O)N1CCC[C@H]1c1nc(Br)c(-c2ccc(N=[N+]=[N-])cc2)[nH]1)C(C)C`, for which the concentration for half-maximal inhibition (IC50) in data set [6] was determined as 1.5 µM; in data set [7] it was 50.5 µM; in data set [9], 80.9 µM; in [11], 50.5 µM. Also, the CC50 in data set [1] was 35 µM; in data set [2] it was more than 1 µM; in [3], 52 µM; in data set [4], 16 µM. In addition, the IC90 was more than 100 µM in data set [8], more than 100 µM in [10], more than 100 µM in data set [12] and 46.1 µM in data set [13]. The compound also yielded an EC50 in [5] of 0.0007 µM. The compound also displayed an EC90 in data set [5] of 0.0029 µM.
For the compound `COC(=O)N[C@H](C(=O)N1CCC[C@H]1c1nc(Cl)c(-c2ccc(N=[N+]=[N-])cc2)[nH]1)C(C)C`, the CC50 in data set [1] is 94 µM; in data set [2], more than 1 µM; in data set [14], more than 100 µM; in data set [4] it was 12 µM. The same compound came in with an EC50 in [5] of 0.004 µM. This compound also returned an EC90 in data set [5] of 0.014 µM.
`COC(=O)N[C@H](C(=O)N1CCC[C@H]1c1nc(I)c(-c2ccc(N=[N+]=[N-])cc2)[nH]1)C(C)C`: the CC50 in [1] was 64.2 µM; in [2], more than 1 µM; in data set [14], more than 100 µM; in [4], 14.2 µM. It took 0.002 µM to reach a half-maximal effect in data set [5] (EC50). In data set [5], this compound showed an EC90 of 0.003 µM.
Turning to `COC(=O)N[C@H](C(=O)N1CCC[C@H]1c1nc(-c2ccc(-c3ccc(C(F)(F)F)cc3)cc2)c[nH]1)C(C)C`, the IC50 in data set [6] was determined as 6.5 µM; in [7], 62.1 µM; in data set [9], 82.9 µM; in [11], 9.1 µM. The CC50 in data set [1] was more than 100 µM; in [2], more than 1 µM; in [3] it was 12 µM; in [4], 14 µM. Also, the concentration for an effect of 90% (IC90) in data set [8], in data set [10], in [12] and in data set [13] was more than 100 µM in each case. In data set [5], this compound yielded an EC50 of 0.0046 µM. The 90% effect level in data set [5] (EC90) was put at 0.0096 µM.
As for `COC(=O)N[C@H](C(=O)N1CCC[C@H]1c1ncc(-c2ccc(-c3cccc(C(F)(F)F)c3)cc2)[nH]1)C(C)C`, the CC50 in [2] was more than 1 µM; in data set [14] it was 32 µM; in [16], 12 µM; in data set [15], 44 µM. This compound also registered an EC50 in data set [5] of more than 0.1 µM.
`COC(=O)N[C@H](C(=O)N1CCC[C@H]1c1ncc(-c2ccc(-c3ccc(OC(F)(F)F)cc3)cc2)[nH]1)C(C)C`: the CC50 in [2] was more than 1 µM; in [14], 10 µM; in data set [16], 10 µM; in data set [15], 11 µM. Moreover, in data set [5], the EC50 was more than 0.1 µM.
With `COC(=O)N[C@H](C(=O)N1CCC[C@H]1c1ncc(-c2ccc(-c3ccc(O)cc3)cc2)[nH]1)C(C)C`, the CC50 in data set [2] was more than 1 µM; in [14], 55 µM; in data set [16], 13 µM; in data set [15] it was 70 µM. The compound also had an EC50 in data set [5] of 0.005 µM. In [5], the 90% effect level (EC90) was put at 0.017 µM.
For `COC(=O)N[C@H](C(=O)N1CCC[C@H]1c1ncc(-c2ccc(-c3cccc(O)c3)cc2)[nH]1)C(C)C`, the CC50 in data set [2] was more than 1 µM; in [14], more than 100 µM; in data set [15] it was more than 100 µM; in [4] it was 50 µM. The EC50 in data set [5] was more than 1 µM.
For `COC(=O)N[C@H](C(=O)N1CCC[C@H]1c1nc(-c2ccc(-c3ccc(CO)cc3)cc2)c[nH]1)C(C)C`, the IC50 was 6.9 µM in [6], more than 100 µM in [7], 56.7 µM in [9] and 31.2 µM in [11]. In addition, the CC50 in [1] was more than 100 µM; in data set [2] it was more than 1 µM; in data set [3], 67 µM; in data set [4] it was 59 µM. Moreover, the IC90 in [8], in [10], in data set [12] and in data set [13] was more than 100 µM each time. Also, in data set [5], the EC50 is 0.002 µM. Moreover, it took 0.009 µM to reach the 90% level in data set [5] (EC90).
`COC(=O)N[C@H](C(=O)N1CCC[C@H]1c1ncc(-c2ccc(NS(C)(=O)=O)cc2)[nH]1)C(C)C`: the CC50 in data set [2] is more than 1 µM; in data set [14], more than 100 µM; in [15] it was more than 100 µM; in data set [4], 13 µM. The compound also yielded an EC50 in data set [5] of more than 0.1 µM.

For orientation: EC50 means the concentration that produces a half-maximal response. Read a low EC50 as a more potent agent. As a reminder, the IC50 is the concentration that inhibits the measured activity by half. A low value points to greater potency. Usually IC90 stands for the concentration at which the effect reaches the 90% level. Lower therefore signals an effect from little substance. A word on the EC90: it is the point of the concentration-response curve where the effect stands at 90%.
